Here are results for 3 molecules from US8309535B2, “Compositions and methods to treat recurrent medical conditions” (priority 2003, dated 2012).

The test system of series [1] is subjects having specific phobias. The settings on record: cited from earlier work.
The conditions of series [2]: cited from earlier work.
Series [3] relates to subjects on chronic dosing schedules (chronically ill with tuberculosis). The conditions noted are these: 500-1000 mg/day, side effects correlate with dosage amount; cited from earlier work.
The subject of series [4] is subject afflicted with recurring neuropathic pain. Nature of the series: Example 1: treatment of a subject with recurring neuropathic pain. The series is classed as in vivo, human. As for the experimental part:
After seven days, the dose of amitriptyline was doubled to 20 mg.

Series [5] deals with subject with paralytic sexual performance anxiety. The settings on record: subject unresponsive to purely behavioral interventions; cited from earlier work.

SMILES strings stand for the structures. Structures can show the parent of a compound that is named as a salt.

Consider `N[C@@H]1CON=C1O` [DCS, D-cycloserine], for which, in series [1] (DCS in conjunction with psychotherapy, psychotherapy alone required an average of eight sessions), the “average number of psychotherapy sessions to reach a clinical cure” value is on record as “two”. Besides, the “fewer therapy sessions needed to reach clinical cure” value in series [1] (DCS with cognitive behavioral therapy sessions, phobic disorders) is 75%. In addition, the “time of peak blood levels after dosing” value in series [2] (after dosing) was 3 to 8 h. Besides, in series [2] (in vivo), the half-life was 10 h. Moreover, the infrequent side effects entry in series [3] was “drowsiness, headache, confusion, tremor, vertigo, and memory difficulties, paresthesias, and seizure”.

On to `CN(C)CCC=C1c2ccccc2CCc2ccccc21` [amitriptyline hydrochloride], for which the effect on pain result in series [4] (10 mg per day for seven days) is recorded as “little effect on the pain”; in series [4] (20 mg per day, after two days on the higher dose) it was “substantially subsided”.

For `CCCc1nn(C)c2c(=O)[nH]c(-c3cc(S(=O)(=O)N4CCN(C)CC4)ccc3OCC)nc12` [sildenafil], the “response to pharmaceutical treatment” value in series [5] is recorded as “responded to pharmaceutical treatment”.
